# Patent US20130287807A1, “COMPOUNDS FOR TREATING SYMPTOMS ASSOCIATED WITH PARKINSON'S DISEASE” (priority 2008, published 2013)
# Square brackets hold non-standard residues; d marks the D form. Ends that are not written are not given here. Tle = CC(C)(C)[C@H](N)C(=O)O
# B1: p4703 (peptide)
# peptide: DTYFPRSC
# B2: p4704 (peptide)
# peptide: VELRHSRC
# B3: p4705 (peptide)
# peptide: YSMRHDAC
# B4: p4706 (peptide)
# peptide: AANYFPRC
# B5: p4708 (peptide)
# peptide: SSSFFPRC
# B6: p4711 (peptide)
# peptide: QVMRHHAC
# B7: p4716 (peptide)
# peptide: ATFRHSPC
# B8: p4717 (peptide)
# peptide: APMYFPHC
# B9: p4701 (peptide)
# peptide: NELRHSTC
# B10: p4702 (peptide)
# peptide: GEMRHQPC
# B11: p4710 (peptide)
# peptide: SAGSFRHC
# B12: p4712 (peptide)
# peptide: SEFSHSSC
# B13: p4714 (peptide)
# peptide: ELFKHHLC
# B14: p4722 (peptide)
# peptide: EFLRHTLC
# B15: p4723 (peptide)
# peptide: ATPLFRHC
# B16: p4726 (peptide)
# peptide: LHIPFRHC
# B17: p4743 (peptide)
# peptide: SNSEFRRC
# B18: p4744 (peptide)
# peptide: SELRHSTC
# B19: p4745 (peptide)
# peptide: THMEFRRC
# B20: p4747 (peptide)
# peptide: QLFKHSPC
# B21: p4748 (peptide)
# peptide: YEFRHAQC
# B22: p4749 (peptide)
# peptide: SNFRHSVC
# B23: p4750 (peptide)
# peptide: APIQFRHC
# B24: p4752 (peptide)
# peptide: NSSELRHC
# B25: p4755 (peptide)
# peptide: SQSYFKHC
# System: monoclonal antibody MV-002
# Assay: In vitro binding assay (ELISA), BSA-coupled peptides, parental antibody MV-002
# Parameters: species or system C57/B16 mice
# Settings: Table 1 (MV-002); peptide-BSA on plate, compared to original epitope
# Method: Peptides derived from Phage Display as well as variants thereof were coupled to BSA and bound to ELISA plates (1 μM; as indicated in the respective figures) and subsequently incubated with the monoclonal antibody that was used for the screening procedure to analyse binding capacity of identified peptides.
# Legend to Table 1: the binding capacity is coded by the following binding code: 1:X describes the dilution factor of the parental AB. Ac- . . . indicates acetylated AA.
row,Molecule,Binding Capacity
1,GMIVFPHC [p4679],3 (strong binding :>320000)
2,GEIRFELC [p4796],2 (medium binding :40000-320000)
3,GEMWFALC [p4671],3 (strong binding :>320000)
4,Ac-GEIYFERC [p4804],2 (medium binding :40000-320000)
5,GQIRFDHC [p4669],3 (strong binding :>320000)
6,AIPLFVMC [p4682],1 (weak binding :<40000)
7,GELQFPPC [p4672],3 (strong binding :>320000)
8,GTIFFRDC [p4692],1 (weak binding :<40000)
9,AGEIYFERC [p4806],1 (weak binding :<40000)
10,GELFFPKC [p4685],3 (strong binding :>320000)
11,GQIMFPRC [p4686],3 (strong binding :>320000)
12,GQIKFAQC [p4694],3 (strong binding :>320000)
13,GEIRFALC [p4678],3 (strong binding :>320000)
14,GTLIFHHC [p4695],2 (medium binding :40000-320000)
15,GEMQFFIC [p4676],3 (strong binding :>320000)
16,GELFFEKC [p4795],2 (medium binding :40000-320000)
17,SGEIYFERC [p4805],1 (weak binding :<40000)
18,GQLKFPFC [p4690],3 (strong binding :>320000)
19,HMRMYFEC [p4687],3 (strong binding :>320000)
20,GDLKFPLC [p4683],3 (strong binding :>320000)
21,GQIWFISC [p4666],1 (weak binding :<40000)
22,GQILFPVC [p4684],3 (strong binding :>320000)
23,GQIIFQSC [p4668],2 (medium binding :40000-320000)
24,KLPLFVMC [p4691],1 (weak binding :<40000)
25,QLPLFVLC [p4700],1 (weak binding :<40000)
26,GSLFFWPC [p4688],2 (medium binding :40000-320000)
27,GELYFRAC [p4677],3 (strong binding :>320000)
28,GQIQFPLC [p4697],3 (strong binding :>320000)
29,CGEIYFER [p4807],1 (weak binding :<40000)

# Target: monoclonal antibody MV-001
# Assay: ELISA on peptide-BSA; code 2 = medium binding, OD halfmax 1:4000-20000
# Settings: not given
row,Molecule,OD halfmax 1:X (dilution factor of the parental antibody at half-maximal OD) (dilutionfactor(1:x))
1,B1,4000 to 20000
2,B2,4000 to 20000
3,B3,4000 to 20000
4,B4,4000 to 20000
5,B5,4000 to 20000
6,B6,4000 to 20000
7,B7,4000 to 20000
8,B8,4000 to 20000

# System: monoclonal antibody (DAEFRH-peptide-specific)
# Assay: Inhibition assay (ELISA): mimotope peptides compete with plate-bound original epitope DAEFRH for recognition by the monoclonal antibody
# Type: binding, Mice
# Parameters: key to inhibition (s/m/—): s: strong inhibition; m: moderate inhibition; —: -: no inhibition
# Settings: competition ELISA, plate-bound DAEFRH-C-BSA; text to FIGS. 2-9
# Text: Mice are vaccinated with the 6mer peptide DAEFRH (natural N-terminal Aβ42 sequence) linked to the protein bovine serum albumin BSA (to make use of the hapten-carrier-effect), emulsified in CFA (first injection) and IFA (booster injections). DAEFRH-peptide-specific, antibody-producing hybridomas are detected by ELISA (DAEFRH-peptide-coated ELISA plates).
# FIGS. 2 and 3 describe the results of inhibition assays performed with mimotope peptides included in and obtained from the 5 libraries (as described in WO 2004/062556). The mimotope peptides compete with the original epitope for recognition by the monoclonal antibody. Original epitope and mimotope peptides contain an additional C at the C-terminus for coupling to a protein carrier (if desired).
# (§1) After blocking with PBS/BSA 1% (200 μl/well, 12 h, 4° C.), the plates are washed 3× times with PBS/Tween. Then, biotinylated monoclonal antibody (1:2000, 50 μl/well) and peptides (50 μl/well) at 50, 5, 0.5, 0.05, 0.005, and 0.0005 μg/ml are added for 20 min. at 37° C. The plates are washed 3× times with PBS/Tween and are incubated with horseradish peroxidase (HRP)-labeled streptavidin (100 μl/well, 30 min, RT). The plates are washed 5× times with PBS/Tween and are incubated with ABTS+H2O2(0.1% w/v, 10 to 45 min) and the reaction is stopped with citric acid followed by photometric evaluation (wavelength 405 nm).
# as §1, with “different concentrations” for “50, 5, 0.5, 0.05, 0.005, and 0.0005 μg/ml”, “ABTS+H2O2 (0.1%” for “ABTS+H2O2(0.1%”
# as §1, with “different concentrations” for “50, 5, 0.5, 0.05, 0.005, and 0.0005 μg/ml”
row,Molecule,inhibition of binding of the monoclonal antibody to the original epitope
1,"C[C@H](NC(=O)[C@H](CC(=O)O)NC(=O)[C@H](CCCNC(=N)N)NC(=O)[C@H](Cc1ccccc1)NC(=O)[C@H](CCC(=O)O)NC(=O)[C@H](Cc1c[nH]c2ccccc12)NC(=O)[C@@H](N)CC(=O)O)C(=O)N[C@@H](CS)C(=O)O [Peptide 1241, DWEFRDA]",block epitope recognition
2,DKE(tBuGly)R (DKE[Tle]R) [Peptide 4061],not inhibitory
3,ATYAYWN [Peptide 4038],not inhibitory
4,DNEFRSP [Peptide 4012],moderately inhibit
5,KKELRI (KKELRIC) [Peptide 1234],hardly inhibitory
6,"CC[C@H](C)[C@H](NC(=O)[C@H](CCCNC(=N)N)NC(=O)[C@H](CC(C)C)NC(=O)[C@H](CCC(=O)O)NC(=O)[C@H](CCCCN)NC(=O)[C@@H](N)CC(=O)O)C(=O)N[C@@H](CS)C(=O)O [Peptide 3001, DKELRI]",block epitope recognition

# Same assay, conditions: peptide lists of Example 4
row,Molecule,inhibition (s/m/—)
1,DKE(tBuGly)R (DKE[Tle]R) [Peptide 4061],—
2,ATYAYWN [Peptide 4038],—
3,DNEFRSP [Peptide 4012],s

# Same assay, conditions: summary Tables 1 and 2 (Examples 2, 3)
row,Molecule,Inhibitory capacity of mimotopes
1,"C[C@H](NC(=O)[C@H](CC(=O)O)NC(=O)[C@H](CCCNC(=N)N)NC(=O)[C@H](Cc1ccccc1)NC(=O)[C@H](CCC(=O)O)NC(=O)[C@H](Cc1c[nH]c2ccccc12)NC(=O)[C@@H](N)CC(=O)O)C(=O)N[C@@H](CS)C(=O)O [Peptide 1241, DWEFRDA]",strong
2,KKELRI (KKELRIC) [Peptide 1234],none
3,"CC[C@H](C)[C@H](NC(=O)[C@H](CCCNC(=N)N)NC(=O)[C@H](CC(C)C)NC(=O)[C@H](CCC(=O)O)NC(=O)[C@H](CCCCN)NC(=O)[C@@H](N)CC(=O)O)C(=O)N[C@@H](CS)C(=O)O [Peptide 3001, DKELRI]",strong

# Target: monoclonal antibody MV-001
# Assay: ELISA on peptide-BSA; code 3 = strong binding, OD halfmax 1:>20000
# Settings: not given
row,Molecule,OD halfmax 1:X (dilution factor of the parental antibody at half-maximal OD) (dilutionfactor(1:x))
1,B9,> 20000
2,B10,> 20000
3,B11,> 20000
4,B12,> 20000
5,B13,> 20000
6,B14,> 20000
7,B15,> 20000
8,B16,> 20000
9,B17,> 20000
10,B18,> 20000
11,B19,> 20000
12,B20,> 20000
13,B21,> 20000
14,B22,> 20000
15,B23,> 20000
16,B24,> 20000
17,B25,> 20000
